The subject of the test is M. tuberculosis No. 74. Briefly: In vitro antibacterial activity (2): MIC by broth dilution method. The note with it: rifampicin-resistant strain; for MIC: Mycobacterium tuberculosis, NO.74, Middlebrook 7H9 broth, 35° C. for 10–21 days, read-out: MICs against Mycobacterium tuberculosis, M. tuberculosis No. 74. The format is cell-based, Mycobacterium tuberculosis. Background: Broth dilution looks for growth in wells or tubes with falling amounts of substance.

Converted amounts (≈) assume the structure as drawn.

For `CO[C@H]1[C@@H](O)[C@H](n2ccc(=O)[nH]c2=O)O[C@@H]1[C@@H](O[C@H]1OC(C(=O)Nc2ccc(F)c(F)c2)=C[C@H](O)[C@@H]1O)C(N)=O` [Exemplification Compound No. 3712], the MIC was 8 µg/mL (≈ 14 µM) and the “antibacterial activity against M. tuberculosis No. 74 (in words)” value is recorded as “excellent antibacterial activity”. `CO[C@H]1/C=C/O[C@@]2(C)Oc3c(C)c(O)c4c(O)c(c(/C=N/N5CCN(C)CC5)c(O)c4c3C2=O)NC(=O)/C(C)=C\C=C\[C@H](C)[C@H](O)[C@@H](C)[C@@H](O)[C@@H](C)[C@H](OC(C)=O)[C@@H]1C` [rifampicin, reference compound]: the MIC was 128 µg/mL (≈ 156 µM).
